Experimental data taken from patent US20220133782A1, “METHODS AND COMPOSITIONS FOR USING CINNAMALDEHYDE AND ZINC FOR WEIGHT MANAGEMENT” (SOCIÉTÉ DES PRODUITS NESTLÉ S.A., priority 2014, published 2022).

Legend:
[1] = Comparative taste testing in human subjects; type: in vivo; conditions: 4.8 ppm capsaicin or 350 ppm cinnamaldehyde, FIG. 9
Description: Human subjects were administered a composition comprising 4.8 ppm capsaicin or 350 ppm cinnamaldehyde. […] 87.9% of the participants judged capsaicin intense to very intense, compared to only 20.5% for cinnamaldehyde. To achieve a similar effect on fat oxidation of capsaicin and cinnamaldehyde, the dose of capsaicin is about 1.5 times less than the maximum that can be used as a flavor (7 ppm according to Fenaroli's Handbook; Burdock, 2010), and the dose of cinnamaldehyde is about 17.5 times less than the maximum that can be used as a flavor (6191.0 ppm according to Fenaroli's Handbook; Burdock, 2010).

[2] = Nose temperature after ingestion in human subjects; type: in vivo; conditions: fifteen minutes following ingestion, FIG. 7
Description: The nose temperature of the subjects was analyzed over the fifteen minutes following ingestion of the various compounds.

[3] = Chin temperature after ingestion in human subjects (sympathetic autonomic activity); type: in vivo; conditions: for AUC difference in chin temperature relative to placebo: Z10, comparison vs Pl (placebo)
Description: The chin temperature of the subjects was measured over the eighty minutes following ingestion of the various compounds. […] The increased sympathetic activity identified by measuring the facial temperature (increased blood flow on the chin) might explain the increased energy expenditure measured by indirect calorimetry.

[4] = target: T1, hTRPA1 expressed in CHO cells (Homo sapiens, UniProt O75762); assay: In vitro activity of hTRPA1 expressed in CHO cells (intracellular calcium, fluorescent dye); type: cell-based; design: in vitro activity of hTRPA1, positive control efficacy: dose or concentration left out as unconfirmed
T1 construct: expressed in transfected cells; host or cells: CHO cells

[5] = Postprandial fat oxidation after ingestion in human subjects; type: in vivo
Description: The postprandial fat oxidation was measured over the 90 minutes following ingestion of the various compounds.

TRPA1 = TRPA1 (Homo sapiens, UniProt O75762); conditions: background statement; read-out: EC50 for activation of TRPA1; cited from earlier work
[6] = Energy expenditure after ingestion in human subjects; type: in vivo
Description: Human subjects were administered placebo, a cooling flavor, capsaicin, or cinnamaldehyde. The energy expenditure was measured over the eighty minutes following ingestion.

TRPM8 = TRPM8 (Homo sapiens, UniProt Q7Z2W7); conditions: background statement; cited from earlier work
TRPV1 = TRPV1 (Homo sapiens, UniProt Q8NER1); conditions: background statement; cited from earlier work
[7] = flavoring level of cinnamaldehyde judged significantly less intense than capsaicin

T1 sequence (O75762 whole entry): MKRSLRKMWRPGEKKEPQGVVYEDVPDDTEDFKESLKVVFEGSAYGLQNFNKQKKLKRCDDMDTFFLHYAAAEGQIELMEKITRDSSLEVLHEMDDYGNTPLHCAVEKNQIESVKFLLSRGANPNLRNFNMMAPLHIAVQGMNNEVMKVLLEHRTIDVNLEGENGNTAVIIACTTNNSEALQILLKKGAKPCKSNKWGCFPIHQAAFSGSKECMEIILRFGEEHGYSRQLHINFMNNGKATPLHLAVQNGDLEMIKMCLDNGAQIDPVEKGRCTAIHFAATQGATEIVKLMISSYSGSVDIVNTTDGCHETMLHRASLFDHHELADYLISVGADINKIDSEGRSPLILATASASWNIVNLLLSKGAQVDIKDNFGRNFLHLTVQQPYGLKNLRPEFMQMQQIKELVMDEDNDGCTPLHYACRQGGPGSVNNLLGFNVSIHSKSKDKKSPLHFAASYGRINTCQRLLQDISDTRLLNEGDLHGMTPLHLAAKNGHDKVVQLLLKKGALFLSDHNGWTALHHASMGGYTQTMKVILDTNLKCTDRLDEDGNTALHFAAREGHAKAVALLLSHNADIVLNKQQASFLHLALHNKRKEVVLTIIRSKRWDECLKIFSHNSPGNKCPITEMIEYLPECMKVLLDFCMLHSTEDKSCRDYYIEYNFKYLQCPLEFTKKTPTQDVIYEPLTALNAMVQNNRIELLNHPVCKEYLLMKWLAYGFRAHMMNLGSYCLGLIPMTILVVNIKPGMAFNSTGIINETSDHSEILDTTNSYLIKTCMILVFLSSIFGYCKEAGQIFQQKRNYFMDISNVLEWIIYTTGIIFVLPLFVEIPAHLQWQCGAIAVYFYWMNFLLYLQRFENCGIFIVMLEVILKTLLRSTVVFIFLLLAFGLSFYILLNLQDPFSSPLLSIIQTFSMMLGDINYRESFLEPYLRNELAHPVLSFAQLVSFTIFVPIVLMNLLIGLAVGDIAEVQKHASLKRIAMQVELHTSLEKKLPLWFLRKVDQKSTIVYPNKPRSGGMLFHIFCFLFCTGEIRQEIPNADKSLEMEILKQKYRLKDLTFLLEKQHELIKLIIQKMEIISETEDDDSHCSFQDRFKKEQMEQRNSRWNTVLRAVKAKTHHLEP
Sequence of TRPA1 (O75762 whole entry, species assumed): as the sequence (O75762 whole entry) above
Sequence of TRPV1 (Q8NER1 whole entry, species assumed): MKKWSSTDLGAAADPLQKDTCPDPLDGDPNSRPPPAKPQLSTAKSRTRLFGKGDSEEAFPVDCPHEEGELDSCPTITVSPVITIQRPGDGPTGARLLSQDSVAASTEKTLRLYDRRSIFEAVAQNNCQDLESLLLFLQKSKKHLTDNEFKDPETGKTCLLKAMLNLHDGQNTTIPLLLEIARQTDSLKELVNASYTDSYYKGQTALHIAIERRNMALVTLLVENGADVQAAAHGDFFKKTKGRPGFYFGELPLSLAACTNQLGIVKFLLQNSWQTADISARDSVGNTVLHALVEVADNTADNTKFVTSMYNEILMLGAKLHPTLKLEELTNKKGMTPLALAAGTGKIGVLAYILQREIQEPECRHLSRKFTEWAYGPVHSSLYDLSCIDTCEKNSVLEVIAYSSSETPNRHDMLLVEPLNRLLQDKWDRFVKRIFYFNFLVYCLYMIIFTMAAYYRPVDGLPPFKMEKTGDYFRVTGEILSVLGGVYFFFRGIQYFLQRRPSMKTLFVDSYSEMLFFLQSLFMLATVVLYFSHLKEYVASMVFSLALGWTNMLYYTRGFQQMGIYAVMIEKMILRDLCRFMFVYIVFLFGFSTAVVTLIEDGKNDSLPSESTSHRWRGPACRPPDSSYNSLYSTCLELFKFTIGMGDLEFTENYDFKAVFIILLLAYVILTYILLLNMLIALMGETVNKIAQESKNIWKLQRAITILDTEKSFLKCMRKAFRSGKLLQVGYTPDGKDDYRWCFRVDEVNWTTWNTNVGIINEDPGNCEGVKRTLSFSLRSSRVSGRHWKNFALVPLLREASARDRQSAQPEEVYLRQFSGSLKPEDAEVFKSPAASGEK
Sequence of TRPM8 (Q7Z2W7 whole entry, species assumed): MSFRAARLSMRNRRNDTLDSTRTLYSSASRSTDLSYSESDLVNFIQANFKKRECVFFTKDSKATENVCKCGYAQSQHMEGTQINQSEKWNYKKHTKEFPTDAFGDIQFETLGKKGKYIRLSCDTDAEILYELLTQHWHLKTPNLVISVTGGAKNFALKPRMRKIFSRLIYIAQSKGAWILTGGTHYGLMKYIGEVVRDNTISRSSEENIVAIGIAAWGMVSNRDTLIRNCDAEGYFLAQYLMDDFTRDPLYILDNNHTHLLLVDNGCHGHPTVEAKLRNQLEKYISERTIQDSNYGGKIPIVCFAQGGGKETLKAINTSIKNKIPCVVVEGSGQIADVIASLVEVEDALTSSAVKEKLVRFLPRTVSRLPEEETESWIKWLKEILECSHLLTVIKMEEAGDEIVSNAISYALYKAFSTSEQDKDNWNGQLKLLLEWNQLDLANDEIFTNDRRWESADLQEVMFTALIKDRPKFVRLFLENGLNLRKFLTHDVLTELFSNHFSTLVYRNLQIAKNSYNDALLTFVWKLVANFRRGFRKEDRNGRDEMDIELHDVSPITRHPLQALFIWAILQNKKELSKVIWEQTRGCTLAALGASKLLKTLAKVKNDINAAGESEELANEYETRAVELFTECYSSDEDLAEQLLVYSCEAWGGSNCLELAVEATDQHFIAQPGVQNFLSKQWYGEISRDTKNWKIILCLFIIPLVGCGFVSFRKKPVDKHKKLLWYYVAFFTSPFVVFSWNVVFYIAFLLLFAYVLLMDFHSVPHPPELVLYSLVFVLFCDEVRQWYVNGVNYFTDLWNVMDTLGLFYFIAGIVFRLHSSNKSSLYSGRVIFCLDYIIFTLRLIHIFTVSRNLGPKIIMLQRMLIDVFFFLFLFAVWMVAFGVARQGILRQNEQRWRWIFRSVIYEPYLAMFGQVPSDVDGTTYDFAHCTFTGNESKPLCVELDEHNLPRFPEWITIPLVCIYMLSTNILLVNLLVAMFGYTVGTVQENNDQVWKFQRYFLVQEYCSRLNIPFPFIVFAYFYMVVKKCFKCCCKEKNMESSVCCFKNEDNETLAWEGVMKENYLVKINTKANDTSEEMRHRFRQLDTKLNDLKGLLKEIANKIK

Compound: COc1cc(CNC(=O)CCCC/C=C/C(C)C)ccc1O [capsaicin, reference compound]
- participants who judged the taste intense to very intense [1]: 87.9%
- nose temperature [2]: increase nose temperatures
- AUC difference in chin temperature relative to placebo ([3]; human subjects): 25.26

Compound: [Zn] [zinc]
- zinc concentration required for synergy with cinnamaldehyde on TRPA1 ([4]; in vitro): < 1 µM

Compound: O=CC=Cc1ccccc1 [cinnamaldehyde]
- effect on fat oxidation compared to capsaicin [5, 7]: equivalent effect
- postprandial fat oxidation compared to placebo ([5]; human subjects, over the 90 minutes following ingestion, FIGS. 5 and 6): maintained at higher levels
- EC50 (TRPA1): ~10 µM
- in vitro activity of hTRPA1, positive control efficacy ([4]; according to a dose-response curve): maximum efficacy
- impact on energy expenditure compared to capsaicin [6, 7]: significantly higher impact
- energy expenditure compared to placebo ([6]; human subjects, over the eighty minutes following ingestion, FIGS. 3 and 4): increased
- activation of TRPM8 (TRPM8): not
- nose temperature [2]: increase nose temperatures
- impact on sympathetic nervous system activity compared to capsaicin [3, 7]: significantly higher impact
- AUC difference in chin temperature relative to placebo ([3]; human subjects): 34.072
- chin temperature relative to baseline ([3]; human subjects, over the eighty minutes following ingestion, FIG. 8): increases chin temperature for a prolonged time
- activation of TRPV1 (TRPV1): not
